These are literature values, as cited in US9308169B2, “Microspheres for active embolization” (Biosphere Medical, Inc., priority 2000, dated 2016).

The conditions of the series: effect of the spacer / dangling cationic head of the transfection agent; general statement, no test described.

As for `CCCCCCCC/C=C\CCCCCCCC(=O)OC[C@H](COC(=O)CCC(=O)OCC[N+](C)(C)C)OC(=O)CCCCCCC/C=C\CCCCCCCC` [DOSC], the transfection efficiency result was “best transfection efficiency”.
Consider `CCCCCCCC/C=C\CCCCCCCC(=O)OC[C@H](COC(=O)CCC[N+](C)(C)C)OC(=O)CCCCCCC/C=C\CCCCCCCC` [DOTB], for which the transfection efficiency entry is recorded as “best transfection efficiency”.
